Measured values taken from PubChem BioAssay (NCI).
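Values below derive from 48-hour exposures of cells grown in 96-well plates, with endpoints linearly interpolated between the two concentrations bracketing the appropriate inhibition level. The concentration for full growth arrest is given as TGI.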

Assays:
Experiment in all cases: inhibition of tumour cell growth, NCI panel, 48 h
786-0 renal = test system: 786-0 renal
A549 NSCLC = test system: A549 NSCLC
ACHN renal = test system: ACHN renal
CAKI-1 renal = test system: CAKI-1 renal
CCRF-CEM leukemia = test system: CCRF-CEM leukemia
COLO 205 colon = test system: COLO 205 colon
DLD-1 colon = test system: DLD-1 colon
EKVX NSCLC = test system: EKVX NSCLC
HCC-2998 colon = test system: HCC-2998 colon
HCT-116 colon = test system: HCT-116 colon
HCT-15 colon = test system: HCT-15 colon
HL-60(TB) leukemia = test system: HL-60(TB) leukemia
HOP-18 NSCLC = test system: HOP-18 NSCLC
HOP-62 NSCLC = test system: HOP-62 NSCLC
HT29 colon = test system: HT29 colon
IGROV1 ovarian = test system: IGROV1 ovarian
K-562 leukemia = test system: K-562 leukemia
KM12 colon = test system: KM12 colon
KM20L2 colon = test system: KM20L2 colon
LOX IMVI melanoma = test system: LOX IMVI melanoma
LXFL 529 NSCLC = test system: LXFL 529 NSCLC
M14 melanoma = test system: M14 melanoma
M19-MEL melanoma = test system: M19-MEL melanoma
MALME-3M melanoma = test system: MALME-3M melanoma
MOLT-4 leukemia = test system: MOLT-4 leukemia
NCI-H226 lung = test system: NCI-H226 lung
NCI-H460 lung = test system: NCI-H460 lung
NCI-H522 lung = test system: NCI-H522 lung
OVCAR-3 ovarian = test system: OVCAR-3 ovarian
OVCAR-4 ovarian = test system: OVCAR-4 ovarian
OVCAR-5 ovarian = test system: OVCAR-5 ovarian
OVCAR-8 ovarian = test system: OVCAR-8 ovarian
RPMI-8226 leukemia = test system: RPMI-8226 leukemia
RXF 393 renal = test system: RXF 393 renal
RXF-631 renal = test system: RXF-631 renal
SF-268 CNS = test system: SF-268 CNS
SF-295 CNS = test system: SF-295 CNS
SF-539 CNS = test system: SF-539 CNS
SK-MEL-2 melanoma = test system: SK-MEL-2 melanoma
SK-MEL-28 melanoma = test system: SK-MEL-28 melanoma
SK-MEL-5 melanoma = test system: SK-MEL-5 melanoma
SN12C renal = test system: SN12C renal
SNB-19 CNS = test system: SNB-19 CNS
SNB-75 CNS = test system: SNB-75 CNS
SNB-78 CNS = test system: SNB-78 CNS
SR leukemia = test system: SR leukemia
SW-620 colon = test system: SW-620 colon
U251 CNS = test system: U251 CNS
UACC-257 melanoma = test system: UACC-257 melanoma
UACC-62 melanoma = test system: UACC-62 melanoma
UO-31 renal = test system: UO-31 renal
XF 498 CNS = test system: XF 498 CNS
A498 renal = test system: A498 renal
DMS 114 small cell lung = test system: DMS 114 small cell lung
DMS 273 small cell lung = test system: DMS 273 small cell lung
HOP-92 NSCLC = test system: HOP-92 NSCLC
NCI-H23 lung = test system: NCI-H23 lung
SK-OV-3 ovarian = test system: SK-OV-3 ovarian
TK-10 renal = test system: TK-10 renal

Measured: TGI

O=[N+]([O-])c1ccc(-c2noc(-c3ccccc3)c2C2=NCCN2)cc1
90.8 µM: OVCAR-3 ovarian
not listed: A498 renal | DMS 114 small cell lung | DMS 273 small cell lung | HOP-92 NSCLC | NCI-H23 lung | SK-OV-3 ovarian | TK-10 renal
> 100 µM: all other assays above

CCCC(=O)c1c(NOC2OCC(OC(C)=O)C(OC(C)=O)C2OC(C)=O)nc(OC)n(C)c1=O (stereo not drawn)
3.09 µM: HL-60(TB) leukemia
36 µM: K-562 leukemia
19.1 µM: CCRF-CEM leukemia
not listed: NCI-H522 lung | SK-MEL-2 melanoma | SNB-78 CNS
> 100 µM: all other assays above
